ChEMBL document CHEMBL1201862, “PubChem BioAssay data set” (2004)
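Protocol summary: plate cells (96-well), add compound at 5 concentrations, incubate 48 h, interpolate endpoints linearly. GI50 is the concentration that inhibits growth by half.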 Calls of active or inactive are those of the source. No stated cut-off is given here; in the data, active = GI50 up to about 1.1 µM and inactive = higher.

Legend:
Experiment in all cases: DTP human tumour cell line panel, 48 h
BT-549 = tested on: BT-549
MDA-MB-435 = tested on: MDA-MB-435
DLD-1 = tested on: DLD-1
DMS-114 = tested on: DMS-114
DMS-273 = tested on: DMS-273
LXFL 529 = tested on: LXFL 529
M19-MEL = tested on: M19-MEL
XF498 = tested on: XF498

SMILES	GI50 (BT-549)	GI50 (MDA-MB-435)	GI50 (DLD-1)	GI50 (DMS-114)	GI50 (DMS-273)	GI50 (LXFL 529)	GI50 (M19-MEL)	GI50 (XF498)
N[C@@H]1c2c(Br)sc(Br)c2[C@H](O)[C@@H]1O	> 100 µM (inactive)	> 100 µM (inactive)						
CNC(=O)OC(COC)CN1CCN(c2ccccc2C)CC1 (configuration not stated)		> 10 µM (inactive)						
CN(/N=C/c1cccc2cccnc12)c1ccccc1			> 100 µM (inactive)	> 100 µM (inactive)	85.7 µM (inactive)	89.3 µM (inactive)	> 100 µM (inactive)	> 100 µM (inactive)
N#Cc1ccccc1NC(=O)C(=O)c1c(O)c2ccccc2oc1=O	> 100 µM (inactive)	> 100 µM (inactive)						
ClCCCN(CCCCl)c1ccc(/C=N/c2cccc(Cl)c2)cc1		28.8 µM (inactive)						
CC1=NOC(=O)C1/N=N/c1ccc(Br)c(C)c1 (configuration not stated)			24.4 µM (inactive)	15.6 µM (inactive)	20.2 µM (inactive)	15.5 µM (inactive)	18.6 µM (inactive)	17.6 µM (inactive)
CC1OC2OC3C(OCC(O)C3O)OC(=O)[C@]34CCC(C)(C)CC3C3=CCC5[C@@]6(C)C[C@H](O)[C@H](OC7OC(CO)C(O)C(O)C7OC7OCC(OC(=O)CC(C)(O)CC(=O)OC1C(O)C2O)C(O)C7O)[C@@](C)(CO)C6CC[C@@]5(C)[C@]3(C)CC4 (some centres not stated)	10.2 µM (inactive)	5.89 µM (inactive)						
CN(C)CCNC(=O)c1cccc2c(NCC(=O)O)c3ccccc3nc12		11.4 µM (inactive)						
COc1ccc(/C=N/n2cnc3c(c2=O)S/C(=C2/SC(=S)N(c4ccc(C)cc4)C2=O)N3c2ccccc2)cc1				74.5 µM (inactive)	38.9 µM (inactive)	> 100 µM (inactive)	> 100 µM (inactive)	
CC(C)C[P+](c1ccccc1)(c1ccccc1)c1ccccc1	4.75 µM (inactive)	2.87 µM (inactive)						
CCOC(=O)c1nc2ccccc2nc1Oc1ccc(OC)cc1	> 100 µM (inactive)	> 100 µM (inactive)						
Cc1ccc(S(=O)(=O)NCC2CCCCC2=O)cc1 (configuration not stated)				51.9 µM (inactive)	> 100 µM (inactive)	> 100 µM (inactive)	> 100 µM (inactive)	> 100 µM (inactive)
CCOC(=O)/C(=C\c1ccnc2ccccc12)P(=O)(OCC)OCC	2.16 µM (inactive)	2.75 µM (inactive)						
O=C(NCCCCCCNCc1cccc2ccccc12)Nc1cccc2ccccc12	> 100 µM (inactive)	> 100 µM (inactive)						
O=C(CCN(C(=O)O)S(=O)(=O)c1ccc(NC(=O)c2ccccc2)cc1)NC1CCCCC1			62.5 µM (inactive)	> 100 µM (inactive)	21.7 µM (inactive)	> 100 µM (inactive)	59.7 µM (inactive)	> 100 µM (inactive)
CCC1(C(=O)OC(C)(C)C)OC12C(C)CCCC2C (configuration not stated)	> 100 µM (inactive)	41.2 µM (inactive)						

SMILES	GI50 (BT-549)	GI50 (MDA-MB-435)	GI50 (DLD-1)	GI50 (DMS-114)	GI50 (DMS-273)	GI50 (LXFL 529)	GI50 (M19-MEL)	GI50 (XF498)
CC1=CC(=O)/C(=C/NC(=S)c2ccncc2)C(=O)O1	> 100 µM (inactive)	> 100 µM (inactive)						
O=C1CCSSCCC(=O)NCCN1	> 100 µM (inactive)	> 100 µM (inactive)						
CSC(=S)OC1CC(n2cnc3c(NC(=O)c4ccccc4)ncnc32)OC1CO[Si](C)(C)C(C)(C)C (configuration not stated)	16.5 µM (inactive)	6.12 µM (inactive)						
CC(=O)OCC1OC(n2cc([N+](=O)[O-])c(=O)[nH]c2=O)C(OC(C)=O)C(OC(C)=O)C1OC(C)=O (configuration not stated)			> 100 µM (inactive)	> 100 µM (inactive)	> 100 µM (inactive)	> 100 µM (inactive)	> 100 µM (inactive)	> 100 µM (inactive)
CCOC(=O)Cc1csc2[n+]1C(=O)/C(=C/c1cccc(OC)c1O)S2	13.8 µM (inactive)	11.9 µM (inactive)						
Cc1cc(S(=O)(=O)[N-]/C(=N/S(=O)(=O)c2ccc(Cl)cc2)[n+]2ccc(N(C)C)cc2)c(S)cc1Cl		> 100 µM (inactive)						
CCOC(=O)C1=C(N)N(c2ccccc2)/C(=C(/C#N)c2nc3ccccc3[nH]2)S1			> 100 µM (inactive)		> 100 µM (inactive)	> 100 µM (inactive)	> 100 µM (inactive)	> 100 µM (inactive)
C=C1C(=O)C23C(O)CC4C5(C)CCCC4(C(O)OC5)C2C(OC(C)=O)CC1C3O (configuration not stated)			5.06 µM (inactive)	4.51 µM (inactive)	17.9 µM (inactive)	2.61 µM (inactive)	13.8 µM (inactive)	
COc1ccc(CC2COc3cc(OC)cc(OC)c3C2=O)cc1 (configuration not stated)	44.2 µM (inactive)	3.18 µM (inactive)						
COc1cc([N+](=O)[O-])c(S(=O)(=O)O)cc1-n1nc(-c2ccccc2)n[n+]1-c1cc(S(=O)(=O)[O-])c([N+](=O)[O-])cc1OC		> 100 µM (inactive)						
C#C/C=C\CCCC/C=C\C#CC#CCCCC#CC#C[C@H](COS(=O)(=O)O)OS(=O)(=O)O	> 100 µM (inactive)	> 100 µM (inactive)						
O=S(=O)(O)c1cc(/N=[N+](\[O-])c2cc(S(=O)(=O)O)c3ccccc3c2)cc2ccccc12	19.5 µM (inactive)	> 100 µM (inactive)						
Oc1ccc(-c2nc3ccc(Br)cc3s2)cc1	18.1 µM (inactive)	21.1 µM (inactive)						
CC(=O)N/C=C/c1cc(O)ccc1O			27.2 µM (inactive)		> 67.5 µM (inactive)	12.7 µM (inactive)	31.5 µM (inactive)	18.1 µM (inactive)
Cc1ccc2c(c1)[n+]([O-])c(N)n[n+]2[O-]	> 100 µM (inactive)	> 100 µM (inactive)						
